Measured values reported in the supplement of paper PMC10307832.

Legend:
Experiment in all cases: relative viability (nuclei count vs DMSO), 5 days (fraction); higher = more cells survive
AZ628 + Tozasertib = compound: CC1=C(C=C(C=C1)NC(=O)C2=CC(=CC=C2)C(C)(C)C#N)NC3=CC4=C(C=C3)N=CN(C4=O)C [AZ628] + Cc1cc(Nc2cc(N3CCN(C)CC3)nc(Sc3ccc(NC(=O)C4CC4)cc3)n2)n[nH]1 [Tozasertib] (partner 0.1 µM)
Outline: (§1)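 Relative viability equals treated-well nuclei counts divided by vehicle-well nuclei counts. Counts came from 4× images of lung cancer cell lines grown in 1536-well plates for 5 days after pin-tool dosing on the day after seeding. Dosing used one drug alone or a fixed anchor-drug dose plus five library-drug doses (not always all listed) in √10 steps, and values are medians of duplicate plates.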

[1] = compound: C[As](C)SC[C@H](NC(=O)CC[C@H](N)C(=O)O)C(=O)NCC(=O)O [Darinaparsin] + CC1(C)CCC(c2ccc(Cl)cc2)=C(CN2CCN(c3ccc(C(=O)NS(=O)(=O)c4ccc(N[C@H](CCN5CCOCC5)CSc5ccccc5)c(S(=O)(=O)C(F)(F)F)c4)cc3)CC2)C1 [Navitoclax] (partner 0.5 µM)
Outline: as §1

Darinaparsin + AZD7762 = compound: C[As](C)SC[C@H](NC(=O)CC[C@H](N)C(=O)O)C(=O)NCC(=O)O [Darinaparsin] + NC(=O)Nc1cc(-c2cccc(F)c2)sc1C(=O)N[C@H]1CCCNC1 [AZD7762] (partner 0.2 µM)
Outline: as §1

QS11 + Alpelisib = compound: C1CC2=C(C1)C=C(C=C2)OC3=NC(=C4C(=N3)N(C=N4)CC5=CC=C(C=C5)C6=CC=CC=C6)N[C@@H](CC7=CC=CC=C7)CO [QS11] + Cc1nc(NC(=O)N2CCC[C@H]2C(N)=O)sc1-c1ccnc(C(C)(C)C(F)(F)F)c1 [Alpelisib] (partner 2 µM)
Outline: as §1

Row | Cell Line | relative viability (AZ628 + Tozasertib; first compound 0.08 µM) | relative viability (AZ628 + Tozasertib; first compound 0.253 µM) | relative viability (AZ628 + Tozasertib; first compound 0.8 µM) | relative viability (AZ628 + Tozasertib; first compound 2.53 µM) | relative viability (AZ628 + Tozasertib; first compound 8 µM) | relative viability ([1]; first compound 0.08 µM) | relative viability ([1]; first compound 0.8 µM) | relative viability ([1]; first compound 2.53 µM) | relative viability ([1]; first compound 8 µM) | relative viability (Darinaparsin + AZD7762; first compound 0.08 µM) | relative viability (Darinaparsin + AZD7762; first compound 0.8 µM) | relative viability (Darinaparsin + AZD7762; first compound 2.53 µM) | relative viability (Darinaparsin + AZD7762; first compound 8 µM) | relative viability (QS11 + Alpelisib; first compound 0.08 µM) | relative viability (QS11 + Alpelisib; first compound 0.253 µM) | relative viability (QS11 + Alpelisib; first compound 0.8 µM) | relative viability (QS11 + Alpelisib; first compound 2.53 µM) | relative viability (QS11 + Alpelisib; first compound 8 µM)
1 | PC-14 | 0.502 | 0.526 | 0.612 | 0.564 | 0.44 | 1.19 | 0.981 | 1.04 | 1.17 | 0.481 | 0.361 | 0.422 | 0.379 | 1.08 | 0.982 | 0.911 | 1.01 | 1.02
2 | EPLC-272H | 0.28 | 0.179 | 0.289 | 0.297 | 0.248 | 1.26 | 1.37 | 1.07 | 0.983 | 0.206 | 0.176 | 0.117 | 0.215 | 0.931 | 0.934 | 1.04 | 1.04 | 1.1
3 | NCI-H2228 | 0.241 | 0.288 | 0.239 | 0.272 | 0.161 | 0.856 | 0.996 | 1.02 | 0.825 |  |  |  |  | 0.705 | 0.854 | 0.762 | 1.14 | 1.11
4 | LC-2-ad | 0.445 | 0.427 | 0.548 | 0.392 | 0.354 | 0.551 | 0.324 | 0.421 | 0.487 | 1.07 | 0.859 | 0.679 | 1.02 | 0.93 | 0.853 | 0.698 | 1.08 | 0.779
5 | HOP-62 | 0.396 | 0.38 | 0.362 | 0.358 | 0.326 | 1.39 | 1.2 | 0.963 | 1.13 | 0.669 | 0.518 | 0.497 | 0.782 | 0.968 | 0.927 | 0.956 | 0.85 | 0.535
6 | UMC-11 | 0.228 | 0.21 | 0.194 | 0.212 | 0.203 | 0.339 | 0.313 | 0.305 | 0.311 |  |  |  |  | 0.939 | 1.15 | 1.01 | 1.08 | 1.02
7 | Calu-6 |  |  |  |  |  | 1.13 | 0.921 | 0.752 | 0.745 |  |  |  |  | 0.98 | 0.974 | 0.856 | 0.99 | 0.884
8 | HCC-44 | 1.16 | 0.956 | 0.941 | 0.332 | 0.532 | 1.18 | 1 | 0.864 | 1.19 | 1.02 | 1.03 | 1.08 | 1.05 | 0.837 | 0.755 | 0.659 | 0.728 | 0.476
9 | NCI-H727 | 0.551 | 0.316 | 0.32 | 0.404 | 0.274 | 0.405 | 0.447 | 0.472 | 0.393 | 0.556 | 0.599 | 0.598 | 0.581 | 0.509 | 0.99 | 0.593 | 0.54 | 0.325
10 | A-427 | 0.155 | 0.138 | 0.146 | 0.142 | 0.146 | 0.961 | 1 | 1.03 | 0.98 | 0.696 | 0.681 | 0.747 | 0.589 | 1.03 | 1.16 |  | 1.06 | 1.11
11 | SK-MES-1 | 0.952 | 0.875 | 1.01 | 0.959 | 0.443 | 1.33 | 1.18 | 1.17 | 1.54 |  |  |  |  | 0.997 | 0.919 | 0.918 | 0.886 | 0.849
12 | NCI-H1623 | 0.528 | 0.388 | 0.406 | 0.381 | 0.307 |  |  |  |  |  |  |  |  |  |  |  |  | 
13 | HCC-827 | 0.43 | 0.468 | 0.374 | 0.494 | 0.344 | 1.07 | 1.07 | 1.05 | 1.05 | 0.181 | 0.211 | 0.188 | 0.188 | 0.907 | 1.02 | 0.931 | 1.05 | 1.01
14 | EKVX | 0.396 | 0.381 | 0.392 | 0.467 | 0.233 | 1.14 | 0.825 | 0.918 | 1.15 | 0.817 | 0.739 | 0.726 | 0.82 | 0.895 | 0.821 |  | 0.86 | 0.906
15 | SW 900 | 0.7 | 0.549 | 0.553 | 0.496 | 0.232 |  |  |  |  | 0.644 |  | 0.549 | 0.6 |  |  |  |  | 
16 | NCI-H661 | 0.365 | 0.409 | 0.365 | 0.376 | 0.42 |  |  |  |  |  |  |  |  | 0.657 | 0.599 | 0.658 | 0.637 | 0.646
17 | NCI-H1975 | 0.794 | 0.562 | 0.449 | 0.453 | 0.163 | 1.26 | 1.15 | 1.11 | 1.45 | 0.751 | 0.684 | 0.662 | 0.741 | 0.654 | 0.727 | 0.747 | 0.887 | 0.9
18 | NCI-H1944 | 0.26 | 0.227 | 0.235 | 0.249 | 0.209 | 1.06 | 1.07 | 1.04 | 1.06 | 0.469 | 0.518 | 0.527 | 0.427 | 0.794 | 0.896 |  | 0.826 | 0.846
19 | SK-LU-1 |  | 0.275 | 0.287 | 0.255 | 0.283 | 0.986 | 0.807 | 0.671 | 1.02 |  |  |  |  | 1.14 | 0.934 | 0.917 | 0.774 | 0.712
20 | NCI-H1755 | 0.595 | 0.52 | 0.532 | 0.525 | 0.493 | 1.08 | 0.967 | 0.941 | 1.2 | 0.595 | 0.428 | 0.735 | 0.475 | 1.07 | 0.947 | 0.632 | 0.835 | 0.857
21 | NCI-H650 | 0.855 | 0.713 | 0.722 | 0.789 | 0.446 |  |  |  |  | 0.94 | 0.882 | 0.941 | 0.95 | 0.988 | 1 | 1.14 | 0.909 | 1.18
